Assay [1] relates to human neuroblastoma SK-N-MC cells. The assay is described as follows: Inhibition of camptothecin-induced apoptosis by flow cytometry (sub-G1). It is filed as cell-based. To be noted: 50 μM camptothecin. How it is done:
The assay was performed on human neuroblastoma SK-N-MC cells in culture from the American Type Culture Collection (ATCC), in all cases strict rules of sterility were followed and the manipulation was performed in class II biological safety cabinets following European standard EN 12469. The cells were maintained in the following culture medium: Minimum Essential Medium Eagle (MEM) supplemented with 1 mM sodium pyruvate, 2 mM L-glutamine, 0.1 mM non-essential amino acids, 0.05 mg/ml gentamicin and 10% fetal bovine serum.
The inhibition caused by compound NST0037 against apoptosis (programmed cell death) caused by treatment with camptothecin which inhibits the enzyme Topoisomerase I, which prevents DNA duplication and triggers apoptotic cell death, was analyzed. These cells, not exceeding 15 passages, were seeded on 6-well plates treated for adherent cells with a cell concentration of 8×10^5 cells/well and 7×10^5 cells/well for the assay with pretreatment; 2 wells of the plate were seeded for each condition of the assay.
After 24 hours of cell incubation at 37° C. and 5% CO2, the cell treatments were performed with 2 ml of total volume for the following conditions: • Control: culture medium (medium) • Camptothecin: medium plus camptothecin 50 μM. • Camptothecin plus Z-VAD-fmk: medium plus 50 μM camptothecin plus 50 μM Z-VAD-fmk, as positive inhibition control. • Camptothecin plus NST0037: medium plus 50 μM camptothecin plus NST0037 at 10, 40 or 100 μM.
In the assay with pretreatment, the cells were previously treated with 40 μM of NST0037, 100 μM of mevalonate or both together for 24 hours and then they were treated with 50 μM camptothecin, the rest of the procedure was similar to the assay without pretreatment.
The cells were incubated (at 37° C. and 5% CO2) with these treatments for 6 hours, after which time they were collected along with their culture medium and centrifuged at 300×g for 5 minutes. The medium was removed, a washing was performed with PBS and the cells were fixed for 2 minutes with 500 μl of 70% ethanol at −20° C. Once fixed, they were centrifuged at 400×g for 5 minutes, washed with PBS and 0.05 mg/ml propidium iodide, diluted in cycling buffer (0.1% sodium citrate, 0.3% Nonidet P-40 and 0.02 mg/ml RNase) were added and they were incubated for 1 hour at 37° C. After this time they were analyzed by flow cytometry, comparing the fluorescence of propidium iodide against the amount of DNA. The percentage of apoptosis was measured on the sub-G1 region of each of the conditions.

The next assay concerns the target T1, HMGR enzyme (Homo sapiens, UniProt P04035).
T1 sequence (P04035 426-888 limits assumed): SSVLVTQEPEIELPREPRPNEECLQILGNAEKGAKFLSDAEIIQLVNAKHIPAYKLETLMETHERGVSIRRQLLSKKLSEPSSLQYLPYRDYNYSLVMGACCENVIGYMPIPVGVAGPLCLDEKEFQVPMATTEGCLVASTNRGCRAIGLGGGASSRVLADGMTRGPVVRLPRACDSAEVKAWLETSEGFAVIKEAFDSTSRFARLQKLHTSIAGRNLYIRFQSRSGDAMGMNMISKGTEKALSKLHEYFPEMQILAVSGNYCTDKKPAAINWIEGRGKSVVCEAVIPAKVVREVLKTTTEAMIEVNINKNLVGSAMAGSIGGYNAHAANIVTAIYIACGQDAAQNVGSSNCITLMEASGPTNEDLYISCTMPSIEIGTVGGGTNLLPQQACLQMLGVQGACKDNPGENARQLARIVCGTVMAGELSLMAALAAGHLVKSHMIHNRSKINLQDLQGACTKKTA
Put plainly: Inhibition of HMGR enzyme activity (NADPH absorbance 340 nm). It is filed as biochemical. To be noted: acid form, 37° C. How it is done:
Due to the nature of the compound, the degree of inhibition of the HMGR enzyme by compound NST0037 was determined since this enzyme is key in cellular cholesterol synthesis and in the physiological regulation of said synthesis. […] For the reaction, HMGR uses NADPH as a reducing agent and 3-hydroxy-3-methylglutaryl coenzyme A (HMGCoA) as a substrate, producing mevalonic acid, CoASH and NADP+. The reduction of the absorbance at which NADPH (340 nm) is absorbed is a direct measurement of the catalytic activity of HMGR and serves to calculate the inhibition percentages of different compounds. In order to take the HMGR inhibition, the assay was performed on a 96-well plate, with a total reaction volume of 200 μl. The reaction buffer (50 mM KH2PO4, 1 M KCl, 2 mg/ml Bovine Serum Albumin [BSA] and 5 mM DTT, at pH=7.3) was prepared at the time the reaction was conducted and was maintained at 37° C. […] The acid form of the compounds is used in all the cases.
The reduction of absorbance at 340 nm allows calculating the percentage of HMGR enzyme activity with respect to the control. The IC50 were determined by means of the Trimmed Spearman-Karber method (Version 1.5).

Another assay deals with caspase 3/7. Put plainly: Inhibition of camptothecin-induced activation of caspase 3/7 in SK-N-MC cells. The class given is cell-based, human. The note with it: 50 μM CPT, 6 h. How it is done:
The assay was performed on human neuroblastoma SK-N-MC cells in culture from the American Type Culture Collection (ATCC), in all cases strict rules of sterility were followed and the manipulation was performed in class II biological safety cabinets following European standard EN 12469. The cells were maintained in the following culture medium: Minimum Essential Medium Eagle (MEM) supplemented with 1 mM sodium pyruvate, 2 mM L-glutamine, 0.1 mM non-essential amino acids, 0.05 mg/ml gentamicin and 10% fetal bovine serum. The induction of apoptosis on the cells in culture was performed by means of incubation with camptothecin (CPT), which triggers cell apoptosis activation. The apoptosis was determined by means of the measurement of the activation of effector caspases, caspase 3 or caspase 7, for which a kit for the fluorometric detection of active caspase 3/7 (Apo-ONE® Homogeneous Caspase-3/7, Promega) was used. The active caspase 3 or 7 of the cells cause the rupture of a substrate, which leads to fluorescence emission, which is read by means of a fluorometer. The effect of the pretreatment of compound NST0037 at 10 and 40 μM on the activation of caspase 3/7 caused by 50 μM of camptothecin (CPT) in the SK-N-MC cells was thus analyzed. These cells, not exceeding 15 passages, were seeded on 96-well plates treated for adherent cells with a cell concentration of 5×10^4 cells/well, 3 wells of the plate were seeded for each condition of the assay. After 24 hours of cell incubation at 37° C. and 5% CO2, the pretreatment with NST0037 at 10 and 40 μM was performed. […] On the following day, fluorescence was measured (499/521 nm, […]).

`CCC(CC)C(=O)O[C@H]1C[C@@H](C)C=C2C=C[C@H](C)[C@H](CC[C@@H]3C[C@@H](O)CC(=O)O3)[C@H]21` [NST0037, (1S,2S,6R,8S,8aR)-1,2,6,7,8,8a-hexahydro-3,7-dimethyl-8-[2-[(2R,4R)-tetrahydro-4-hydroxy-6-oxo-2H-pyran-2-yl]ethyl]-1-naphthalenyl-2-ethyl-butyrate]: in assay [1] (40 and 100 μM NST0037, 6 h, no pretreatment), the “maximum protection (inhibition of apoptosis caused by camptothecin)” value amounted to 18%. In assay [1] (24 h pretreatment with 40 μM NST0037), the “percentage of protection (inhibition of apoptosis) with pretreatment” value is recorded as “up to 45%”. The “HMGR inhibition potency compared with atorvastatin” value at HMGR enzyme is “surprisingly close to that of more potent statin, atorvastatin”. Further, the “inhibition of caspase 3/7 with respect to camptothecin” value is 26% in the assay on caspase 3/7 (pretreatment 10 μM NST0037) and 33% in the assay on caspase 3/7 (pretreatment 40 μM NST0037).
